Data from ChEMBL document CHEMBL1147496, “Synthesis and anti-inflammatory activity of some [4,6-(4-substituted aryl)-2-thioxo-1,2,3,4-tetrahydro-pyrimidin-5-yl]-acetic acid derivatives” (2004).

Test system: Rattus norvegicus
Experiment: Anti-inflammatory activity was determined by carangeenan-induced rat paw edema test in albino rats
Assay type: functional
Parameters: concentration or dose not given beside the values

| Structure (SMILES) | Inhibition |
| --- | --- |
| O=C(O)CC1=C(c2ccc(Cl)cc2)N=C(S)NC1c1cccs1 (stereo not drawn) | 16% |
| Cc1ccc(C2=C(CC(=O)O)C(c3ccccc3)NC(S)=N2)cc1 (stereo not drawn) | 28% |
| O=C(O)CC1=C(c2ccc(Cl)cc2)N=C(S)NC1c1ccc(Cl)cc1 (stereo not drawn) | 25% |
| O=C(O)CC1=C(c2ccc(Cl)cc2)N=C(S)NC1c1ccco1 (stereo not drawn) | 9% |
| O=C(O)CC1=C(c2ccccc2)N=C(S)NC1c1ccccc1 (stereo not drawn) | 17% |
| O=C(O)CC1=C(c2ccccc2)N=C(S)NC1c1cccnc1 (stereo not drawn) | 15% |
| O=C(O)CC1=C(c2ccccc2)N=C(S)NC1c1cccs1 (stereo not drawn) | 21% |
| Cc1ccc(C2=C(CC(=O)O)C(c3ccc(Cl)cc3)NC(S)=N2)cc1 (stereo not drawn) | 22% |
| COc1ccc(C2NC(S)=NC(c3ccc(Cl)cc3)=C2CC(=O)O)cc1 (stereo not drawn) | 35% |
| COc1ccc(C2NC(S)=NC(c3ccc(C)cc3)=C2CC(=O)O)cc1 (stereo not drawn) | 33% |
| Cc1ccc(C2=C(CC(=O)O)C(c3cccs3)NC(S)=N2)cc1 (stereo not drawn) | 10% |
| O=C(O)CC1=C(c2ccc(Cl)cc2)N=C(S)NC1c1cccnc1 (stereo not drawn) | 11% |
| O=C(O)CC1=C(c2ccccc2)N=C(S)NC1c1ccc(Cl)cc1 (stereo not drawn) | 30% |
| O=C(O)CC1=C(c2ccccc2)N=C(S)NC1c1ccco1 (stereo not drawn) | 19% |
| COc1ccc(C2NC(S)=NC(c3ccccc3)=C2CC(=O)O)cc1 (stereo not drawn) | 32% |
| Cc1ccc(C2=C(CC(=O)O)C(c3ccco3)NC(S)=N2)cc1 (stereo not drawn) | 11% |
| Cc1ccc(C2=C(CC(=O)O)C(c3cccnc3)NC(S)=N2)cc1 (stereo not drawn) | 7% |
| O=C(O)CC1=C(c2ccc(Cl)cc2)N=C(S)NC1c1ccccc1 (stereo not drawn) | 20% |
